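All cell lines were grown in 96-well plates and treated with compound for 48 hours. GI50 is the concentration that inhibits growth by half. TGI marks complete inhibition of growth.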
Assays:
Assay in all cases: inhibition of tumour cell growth, NCI panel, 48 h; in the data active means GI50 below about 0.43 µM; inactive means the rest
[1] = system: SK-OV-3 ovarian
[2] = system: RPMI-8226 leukemia
[3] = system: T-47D breast
[4] = system: MOLT-4 leukemia
[5] = system: LOX IMVI melanoma
[6] = system: SNB-19 CNS
[7] = system: HOP-62 NSCLC
[8] = system: SW-620 colon
[9] = system: RXF 393 renal
[10] = system: HCC-2998 colon

O=C(CC(Cl)=C(Cl)Cl)Nc1ccccc1
> 100 µM: TGI [1] | TGI [2] | TGI [3] | TGI [4] | TGI [5] | TGI [6] | TGI [7] | TGI [8] | TGI [9]
inactive: GI50 [1] > 100 µM | GI50 [2] > 100 µM | GI50 [3] > 100 µM | GI50 [4] > 100 µM | GI50 [5] > 100 µM | GI50 [6] > 100 µM | GI50 [7] > 100 µM | GI50 [8] > 100 µM | GI50 [9] > 100 µM

CN(C)C=Nc1ccn(CCO)c(=O)n1
> 100 µM: TGI [1] | TGI [10] | TGI [4] | TGI [5] | TGI [6] | TGI [7] | TGI [8] | TGI [9]

Cn1cc(C(=O)c2ccccc2)c2ccccc2c1=O
71.8 µM: TGI [7]
> 100 µM: TGI [1] | TGI [2] | TGI [10] | TGI [4] | TGI [5] | TGI [8] | TGI [9]

CCCCCCCCCCCCOC1C(CNC(=O)C2OC3OC(C)(C)OC3C2NC(=O)Nc2ccc(CC(=O)OC)cc2)OC2OC(C)(C)OC21 (stereo unspecified)
inactive: GI50 [1] > 100 µM | GI50 [2] > 100 µM | GI50 [3] > 100 µM | GI50 [10] > 100 µM | GI50 [5] 47.7 µM | GI50 [6] > 100 µM | GI50 [7] > 50.2 µM | GI50 [8] > 100 µM
> 100 µM: TGI [1] | TGI [2] | TGI [3] | TGI [10] | TGI [4] | TGI [5] | TGI [6] | TGI [7] | TGI [8]

COc1cc(Nc2nc3cc(N)cc(N)c3nc2-c2ccccc2)cc(OC)c1OC
inactive: GI50 [1] 23 µM | GI50 [2] 12.4 µM | GI50 [3] 6.07 µM | GI50 [4] 2.57 µM | GI50 [5] 18.5 µM | GI50 [6] 33.1 µM | GI50 [7] 16.3 µM | GI50 [8] 24.1 µM | GI50 [9] 14.4 µM
57.8 µM: TGI [1]
18 µM: TGI [4]
> 100 µM: TGI [6] | TGI [8]
34.4 µM: TGI [9]
49 µM: TGI [5]
27.3 µM: TGI [3]
32.4 µM: TGI [2]
34.3 µM: TGI [7]

Nc1ncnc2c1ncn2[C@]1(CO)C=C(CO)C(O)C1O (stereo partly specified)
> 100 µM: TGI [1] | TGI [2] | TGI [10] | TGI [4] | TGI [5] | TGI [6] | TGI [7] | TGI [8] | TGI [9]

COc1ccc(C2=C(Cl)c3cc(OC)c(OC)cc3C2OC)cc1OC (stereo unspecified)
> 100 µM: TGI [2] | TGI [10] | TGI [4] | TGI [5] | TGI [6] | TGI [7] | TGI [9]
49.2 µM: TGI [8]

Cn1c2c(c3ccccc31)CCN(CCCCN1CCCCC1)C2=O
> 100 µM: TGI [1] | TGI [2] | TGI [4] | TGI [6] | TGI [7] | TGI [8] | TGI [9]

c1cc(NNc2cccc(-c3nn[nH]n3)c2)cc(-c2nn[nH]n2)c1
> 100 µM: TGI [1] | TGI [2] | TGI [3] | TGI [5] | TGI [6] | TGI [7] | TGI [8] | TGI [9]

N#CCCN(c1ccc(C=Nc2ccccc2)cc1)S(=O)(=O)c1ccccc1
> 100 µM: TGI [1] | TGI [2] | TGI [10] | TGI [4] | TGI [6] | TGI [7] | TGI [8]

Cc1cc(O)c(=O)cc2c1C[C@H]1CC(C)(C)/C=C/C[C@]3(C)Oc4cc(=O)c(O)cc(C)c4C[C@H]3C[C@H](O)[C@@]1(C)O2
0.412 µM: TGI [1]
> 100 µM: TGI [10] | TGI [8]
> 67.3 µM: TGI [6]
2.97 µM: TGI [2]
0.0987 µM: TGI [7]
active: GI50 [1] 0.0181 µM | GI50 [2] 0.0185 µM | GI50 [3] < 0.01 µM | GI50 [10] < 0.0149 µM | GI50 [6] < 0.01 µM | GI50 [7] 0.02 µM | GI50 [8] < 0.01 µM
0.0949 µM: TGI [3]

Cc1cc(S(=O)(=O)Nc2nc3ccccc3o2)c(SCc2ccccc2)cc1Cl
61.5 µM: TGI [9]
inactive: GI50 [1] 34.3 µM | GI50 [2] 11.2 µM | GI50 [4] 24.4 µM | GI50 [5] 14.9 µM | GI50 [6] 21.6 µM | GI50 [7] 28.5 µM | GI50 [8] 20.6 µM | GI50 [9] 29.5 µM
34.8 µM: TGI [5]
> 100 µM: TGI [1] | TGI [4] | TGI [7]
56.4 µM: TGI [8]
67.8 µM: TGI [6]
30.1 µM: TGI [2]

CCOC(=O)c1cc(C(=O)c2cc(OC)c(OC)c(OC)c2)n2ncccc12
inactive: GI50 [1] 0.472 µM | GI50 [10] 2.1 µM | GI50 [4] 0.575 µM | GI50 [5] 2.46 µM | GI50 [6] 0.705 µM | GI50 [7] 0.63 µM
> 95.1 µM: TGI [1]
> 100 µM: TGI [10] | TGI [4] | TGI [5] | TGI [6] | TGI [8]
1.84 µM: TGI [9]
> 75.6 µM: TGI [7]
active: GI50 [2] 0.316 µM | GI50 [8] 0.185 µM | GI50 [9] 0.215 µM

O=C(NCCCCCCCCCCCCNC(=O)c1cccc2ccccc12)c1cccc2ccccc12
30.4 µM: TGI [7]
> 73.6 µM: TGI [6]
> 100 µM: TGI [2] | TGI [10] | TGI [4] | TGI [5] | TGI [8] | TGI [9]
> 66.8 µM: TGI [1]

CN(CCN1C(=O)c2cc([N+](=O)[O-])cc3cc([N+](=O)[O-])cc(c23)C1=O)CCN1C(=O)c2cc([N+](=O)[O-])cc3cc([N+](=O)[O-])cc(c23)C1=O
1.44 µM: TGI [5]
> 100 µM: TGI [6] | TGI [7]
> 71.5 µM: TGI [1]
> 21.2 µM: TGI [2]
16.7 µM: TGI [8]
1.04 µM: TGI [9]
23.8 µM: TGI [10]

CC1=Nc2ccccc2S/C1=C(/C)NNS(=O)(=O)c1ccc(C)cc1
> 100 µM: TGI [1] | TGI [2] | TGI [10] | TGI [4] | TGI [5] | TGI [6] | TGI [7] | TGI [8] | TGI [9]

CN1C(=O)CCC1(O)C1C=CC=CC1 (stereo unspecified)
> 100 µM: TGI [1] | TGI [2] | TGI [10] | TGI [4] | TGI [5] | TGI [6] | TGI [7] | TGI [8] | TGI [9]

CCOC(=O)/C(=C/N1CCN(C(=O)c2ccco2)C1=S)C(=O)c1ccccc1
14.2 µM: TGI [5]
24 µM: TGI [8]
> 50 µM: TGI [1] | TGI [2] | TGI [3] | TGI [4] | TGI [6] | TGI [7]
inactive: GI50 [1] 20 µM | GI50 [2] 12.4 µM | GI50 [3] 4.08 µM | GI50 [4] 19.6 µM | GI50 [5] 6.48 µM | GI50 [6] 35.6 µM | GI50 [7] 17.3 µM | GI50 [8] 7.93 µM

Source: PubChem BioAssay (NCI)
